The subject of data set [1] is renal dehydropeptidase I (DHP-I). It counts as in vitro ADME. The source says: The DHP-I susceptivity was quantitatively analyzed by the method by Kropp et al., Antimicrob., Agents Chemother., vol. 22, p. 62-70 (1982), whereby the smaller the numerical value representing the ratio to imipenem (=1.0), the higher the stability.
The next data set has as its system S. aureus MB4970. Briefly: in vitro antibacterial activity, agar plate dilution method (MIC). Type of data set: cell-based. The conditions noted are these: Staphylococcus aureus, read-out: Minimum inhibitory concentration (MIC). The method, then:
(§1) One platinum loopful of each test microorganism incubated overnight in Mueller Hinton broth, was inoculated to Mueller Hinton agar (inoculum size: 10^6 CFU/ml). Such culture media contained antibacterial agents in various concentrations. After incubation at 37° C. for 16 hours, the minimum inhibitory concentrations (MIC: μg/ml) were measured.

The next data set concerns Ps. aeruginosa MB5000. The description is as above. It counts as cell-based. The conditions noted are these: Pseudomonas aeruginosa, read-out: Minimum inhibitory concentration (MIC). Here is the method: as §1
The test system of a further data set is E. cloacae Nek39. The description is as above. It counts as cell-based. The conditions noted are these: Enterobacter cloacae, read-out: Minimum inhibitory concentration (MIC). Here is the method: as §1
For data set [2], the system named is imipenem resistant Pseudomonas aeruginosa. The conditions noted are these: cited from earlier work.
The conditions of data set [3]: due to the decomposition products; cited from earlier work.
The conditions of data set [4]: cited from earlier work.
The next data set relates to β-lactamase. The conditions noted are these: cited from earlier work.
Data set [5] deals with gram positive bacteria and gram negative bacteria. The conditions noted are these: cited prior art; cited from earlier work.
The subject of data set [6] is highly methicillin resistant Staphylococcus aureus resistant to imipenem. The conditions noted are these: cited from earlier work.
For data set [7], the system named is DHP-I. The conditions noted are these: cited from earlier work.
Data set [8] relates to DHP-I. The conditions noted are these: cited from earlier work. The source holds these as a separate data set.
Data set [9] concerns methicillin resistant Staphylococcus aureus. The conditions noted are these: prior art compounds; cited from earlier work.
For data set [10] the following is noted: in vivo; cited from earlier work.

Values after ≈ are worked out from the molar mass of the structure shown. Like-named read-outs stand apart in the source and are kept apart here.

In data set [1], `C[C@@H](O)[C@H]1C(=O)N2C(C(=O)[O-])=C(S[C@@H]3CN[C@H](/C=C/C(N)=O)C3)[C@H](C)[C@H]12.[K+]` gave a DHP-I susceptivity of 0.2. For the same compound, the MIC amounted to 0.025 µg/mL in the data set with S. aureus MB4970 (MB4970, 16 h); 0.39 µg/mL in the data set with Ps. aeruginosa MB5000 (MB5000, 16 h); 0.025 µg/mL with E. cloacae Nek39 (NEK39, 16 h).
`C[C@@H](O)[C@H]1C(=O)N2C(C(=O)O)=C(S[C@@H]3CN[C@H](/C=C4\CCNC4=O)C3)[C@H](C)[C@H]12` [Example 12, (1R,5S,6S)-6-[(R)-1-Hydroxyethyl]-1-methyl-2-[(2S,4S)-2[(E)-(2-oxopyrrolidin-3-ylidene)methyl]pyrrolidin-4-ylthio]-1-carbapen-2-em-3-carboxylic acid] yielded a DHP-I susceptivity in data set [1] of 0.04. For the same compound, the MIC with S. aureus MB4970 (S. aureus MB4970, Mueller Hinton agar, inoculum 10^6 CFU/ml, 37° C., 16 hours) is 0.025 µg/mL (≈ 0.0614 µM); with Ps. aeruginosa MB5000 (Ps. aeruginosa MB5000, Mueller Hinton agar, inoculum 10^6 CFU/ml, 37° C., 16 hours), 0.39 µg/mL (≈ 0.957 µM); with E. cloacae Nek39 (E. cloacae Nek39, Mueller Hinton agar, inoculum 10^6 CFU/ml, 37° C., 16 hours) it was 0.025 µg/mL (≈ 0.0614 µM).
Regarding `C[C@@H](O)[C@H]1C(=O)N2C(C(=O)O)=C(SCCN=CN)C[C@H]12` [Imipenem, imipenem], the “treating effect (in words)” value in data set [2] and in [6] was “does not show adequate treating effects” in each case. For the same compound, in data set [3], the “toxicity against the kidney” value is “presents toxicity against the kidney due to the decomposition products”. Further, in data set [4] (compared with thienamycin), the “stability in the solid form or in an aqueous solution” value is recorded as “remarkably improved over thienamycin”. Further, the DHP-I susceptivity in data set [1] is 1.0. Besides, the β-lactamase resistance result in the data set with β-lactamase is recorded as “has β-lactamase resistance”. Besides, the “antibacterial activities (in words)” value in [5] is on record as “antibacterial activities of an equal or higher level than thienamycin against various types of bacteria”. The “decomposition by DHP-I in the human kidney” value with DHP-I [7] is “likely to be decomposed by DHP-I in the human kidney”.
Take `C[C@@H](O)[C@H]1C(=O)N2C(C(=O)O)=C(S[C@@H]3CN[C@H](C(=O)N(C)C)C3)[C@H](C)[C@H]12` [meropenem]: in the data set with DHP-I [8] (prior art compounds), the “stability against DHP-I (in words)” value is “substantially improved”. Further, in data set [9], the “antibacterial activity against highly methicillin resistant Staphylococcus aureus (in words)” value is reported as “not adequate”.
For the compound `C[C@@H](O)[C@H]1C(=O)N2C(C(=O)O)=C(SCCN)C[C@H]12` [thienamycin], in data set [4] (cited prior art), the “chemical stability (in words)” value is on record as “chemically unstable”. In the data set with DHP-I [8] (renal dehydropeptidase I, in vivo), the “decomposition by DHP-I (in words)” value is “likely to be decomposed by a certain enzyme in vivo such as renal dehydropeptidase I”. For the same compound, the “antibacterial activities (in words)” value in data set [5] was “strong antibacterial activities over a wide range against gram positive bacteria and gram negative bacteria”. Further, in data set [10], the “recovery rate in the urine” value is given as “low”.

(Values after US5095013A, “2-(2-vinylpyrrolidinylthio)carbapenem derivatives” (Banyu Pharmaceutical Co., Ltd., priority 1989, dated 1992).)
